From patent publication US8927563B2, “Kinase inhibitor” (Respivert Limited, priority 2013, dated 2015)
pIC50: −log10 of the molar value.

Columns and labels:
[1] = target: human ether a go-go (hERG) channel (Homo sapiens (Human), UniProt Q12809); assay: hERG inhibition, IonWorks patch clamp electrophysiology; format: cell-based
Experimental: Compound I was tested for inhibition of the human ether a go-go (hERG) channel using IonWorks™ patch clamp electrophysiology at Essen Bioscience (Welwyn Garden City, England).

[2] = Hydrolytic stability study; format: physicochemical; settings: buffer, 1 mg/mL
Experimental: Chemical stability of Compound I was assessed in a mixture of DMSO and water (3:1) at a test compound concentration of 1 mg/mL
Sample Preparation • A 1.0 mg sample of test compound was dissolved in 750 μL of DMSO. Water (250 μL) was added slowly, ensuring no precipitation occurred.
Recording Stability • A 50 μL aliquot of the test solution was removed and analysed in duplicate by 5 μL HPLC injections. The peak area for the test compound was recorded following manual integration of the corresponding UV trace. • The test solution was heated to 60° C., with stirring, and 50 μL aliquots removed for HPLC analysis at 5 and 24 h timepoints.

[3] = system: rat, Cynomolgus macaque or human hepatocytes; assay: Analysis of metabolites in hepatocyte incubations; format: in vitro ADME; settings: 10 μM, 0, 60 and 90 minutes
Experimental: Studies were conducted by BioFocus (Saffron Walden, UK) to determine the metabolic fate of Compound I following incubation with rat, Cynomolgus macaque or human hepatocytes.
Separate incubations (n=3) of Compound I (10 μM initial concentration) or DMSO control, were performed with cryopreserved hepatocytes from each species (0.5 million cell/mL) at 37° C. for 0, 60 and 90 minutes before termination of reactions and compound extraction with acetonitrile. Sample replicates were pooled prior to analysis.
Potential metabolites were identified using time-of-flight (TOF) and triple quadruple (TQ) mass spectrometers.

d-U937 cells = assay: Accumulation of β catenin in d-U937 cells; format: cell-based, human; settings: normalised to Reference compound at 1 μg/mL
Experimental: U937 cells, a human monocytic cell line, are differentiated into macrophage-type cells by incubation with PMA (100 ng/mL) for between 48 to 72 hr. The cells are then incubated with either final concentrations of test compound or vehicle for 18 hr. The induction of β-catenin by the test compound is stopped by replacing the media with 4% formaldehyde solution. Endogenous […] is neutralised by incubating with quenching buffer (100 μL, 0.1% sodium azide, 1% H2O2 in PBS with 0.05% Tween-20) for 20 min. The cells are washed with washing buffer (200 μL; PBS containing 0.05% Tween-20) and incubated with blocking solution (200 μL; 5% milk in PBS) for 1 hr, re-washed with washing buffer (200 μL) and then incubated overnight with anti-β-catenin antibody solution (50 μL) in 1% BSA/PBS (BD, Oxford, UK).
After washing with washing buffer (3×200 μL; PBS containing 0.05% Tween-20), cells are incubated with a HRP-conjugated secondary antibody solution (100 μL) in 1% BSA/PBS (Dako, Cambridge, UK) and the resultant signal is determined colourimetrically (OD: 450 nm with a reference wavelength of 655 nm) using TMB substrate (50 μL; R&D Systems, Abingdon, UK). This reaction is stopped by addition of 1N H2SO4 solution (50 μL). Cells are then washed with washing buffer and 2% crystal violet solution (50 μL) is applied for 30 min. After washing with washing buffer (3×200 μL), 1% SDS (100 μL) is added to each well and the plates are shaken lightly for 1 hr prior to measuring the absorbance at 595 nm (Varioskan® Flash, Thermo-Fisher Scientific).
The measured OD450-655 readings are corrected for cell number by dividing the OD450-655 by the OD595 readings.

non-mutant kinases = assay: KinomeScan selectivity scores; format: binding
Experimental: Kinase enzyme binding activities of compounds disclosed herein may be determined using a proprietary assay which measures active site-directed competition binding to an immobilized ligand (Fabian, M. A. et al., Nature Biotechnol., 2005, 23:329-336). These assays may be conducted by DiscoverX (formerly Ambit; San Diego, Calif.). The percentage inhibition produced by incubation with a test compound may be calculated relative to the non-inhibited control.

[4] = Plasma pharmacokinetics and total colon distribution after oral administration to mice; format: in vivo; settings: male, C57BL/6, mouse, total colon, oral 5 mg/kg, vehicle B, read-out: Median total colon concentration
Experimental: Studies were conducted by Sai Life Sciences (Hinjewadi, Pune, India) to investigate the plasma pharmacokinetics and total colon tissue distribution of Compound I. In particular, pharmacokinetic studies were carried out in: • male C57BL/6 mice, following a single oral administration; and • male Wistar rats following a single intravenous or oral administration.

Lck = Lck (Homo sapiens (Human), UniProt P06239); assay: Phosphoflow assay, cellular Lck inhibition in Jurkat cells; format: cell-based; settings: H2O2 stimulated, read-out: IC50 Values, phospho-Lck (converted)
Experimental: Jurkat T cells were cultured in starve medium (RPMI 1640+5% FBS) for 24 h prior to the experiment. Cells were harvested and resuspended at 10×10^6 cells/mL in starve medium and then plated into round-bottomed 96 well plates at 1×10^6 cells/well. Serial dilutions of test compound were added (1% final DMSO concentration) for 2 h prior to stimulation. Following pre-incubation with compound, cells were stimulated with H2O2 (0.05% final) for 5 min. The reaction was stopped by centrifugation at 2000 rpm (3 min, 4° C.), then the supernatant was removed and 100 μL of cold fix/perm solution (BD Fix/Perm kit #554714) added. Plates were incubated for 20 min at 4° C. before centrifugation and washing with supplied 1× wash medium (BD Fix/Perm kit #554714). Cells were stained for either phospho-p38α (T180/182), supplied by Cell Signalling Technology (9211s), or phospho-Lck (Y394), supplied by R&D (MAB7500). Antibodies were diluted to 5 μg/mL (R&D) or 1:200 (Cell Signalling Technology) in wash medium, before being incubated 1 h at 4° C. in the dark. Following 3 repeat washes with ice cold wash buffer, secondary antibody (anti-rabbit-FITC #F1362 or anti-mouse-FITC #F2883, both from Sigma) was added at a dilution of 1:1000 and incubated for 1 h at 4° C. in the dark. […] Cells were analysed by flow cytometry using BD Accuri C6.

Chain of Lck (P06239 whole entry): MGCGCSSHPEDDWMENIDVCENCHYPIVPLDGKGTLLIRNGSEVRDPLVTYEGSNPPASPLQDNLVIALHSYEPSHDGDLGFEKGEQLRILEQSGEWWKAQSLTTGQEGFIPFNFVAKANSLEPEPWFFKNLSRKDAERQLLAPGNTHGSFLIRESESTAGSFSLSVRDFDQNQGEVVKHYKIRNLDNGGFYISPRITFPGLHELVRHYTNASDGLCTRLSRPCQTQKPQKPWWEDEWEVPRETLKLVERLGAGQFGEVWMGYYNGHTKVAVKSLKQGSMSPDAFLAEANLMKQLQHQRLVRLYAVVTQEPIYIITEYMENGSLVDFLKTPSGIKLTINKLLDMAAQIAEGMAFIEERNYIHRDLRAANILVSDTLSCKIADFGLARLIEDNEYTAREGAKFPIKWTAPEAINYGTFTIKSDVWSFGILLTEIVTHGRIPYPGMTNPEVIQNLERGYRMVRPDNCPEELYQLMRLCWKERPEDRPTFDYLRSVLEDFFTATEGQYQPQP
Chain of human ether a go-go (hERG) channel (Q12809 whole entry): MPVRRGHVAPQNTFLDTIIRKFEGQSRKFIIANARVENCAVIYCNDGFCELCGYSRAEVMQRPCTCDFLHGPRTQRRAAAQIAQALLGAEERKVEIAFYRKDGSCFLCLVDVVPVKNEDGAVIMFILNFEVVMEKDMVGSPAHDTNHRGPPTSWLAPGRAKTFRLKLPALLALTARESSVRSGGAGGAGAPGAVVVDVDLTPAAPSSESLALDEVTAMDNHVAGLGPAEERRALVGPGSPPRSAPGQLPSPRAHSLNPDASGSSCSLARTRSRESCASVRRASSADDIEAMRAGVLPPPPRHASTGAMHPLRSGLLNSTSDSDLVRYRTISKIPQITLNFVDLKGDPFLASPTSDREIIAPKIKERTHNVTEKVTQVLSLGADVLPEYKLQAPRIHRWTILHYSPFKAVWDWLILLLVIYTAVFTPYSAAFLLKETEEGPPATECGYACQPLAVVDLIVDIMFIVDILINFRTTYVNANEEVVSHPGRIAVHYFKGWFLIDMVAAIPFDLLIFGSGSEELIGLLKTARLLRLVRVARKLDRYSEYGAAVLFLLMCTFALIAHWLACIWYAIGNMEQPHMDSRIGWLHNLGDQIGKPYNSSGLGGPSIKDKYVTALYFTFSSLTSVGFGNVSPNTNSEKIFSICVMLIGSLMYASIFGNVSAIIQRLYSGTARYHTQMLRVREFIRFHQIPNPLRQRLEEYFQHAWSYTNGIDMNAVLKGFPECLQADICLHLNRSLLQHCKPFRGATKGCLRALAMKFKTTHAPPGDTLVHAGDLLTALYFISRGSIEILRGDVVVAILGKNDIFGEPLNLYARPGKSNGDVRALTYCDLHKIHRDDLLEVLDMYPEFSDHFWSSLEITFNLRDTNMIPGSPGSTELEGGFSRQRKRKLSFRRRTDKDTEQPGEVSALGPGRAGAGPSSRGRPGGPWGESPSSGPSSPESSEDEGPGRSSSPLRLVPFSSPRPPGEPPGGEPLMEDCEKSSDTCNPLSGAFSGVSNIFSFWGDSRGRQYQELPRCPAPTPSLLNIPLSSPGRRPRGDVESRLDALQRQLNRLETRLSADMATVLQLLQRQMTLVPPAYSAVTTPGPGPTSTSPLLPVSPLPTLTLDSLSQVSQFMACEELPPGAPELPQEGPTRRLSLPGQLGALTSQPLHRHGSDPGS

For `C#Cc1cc(Nc2nccc(Oc3ccc(NC(=O)Nc4cc(C(C)(C)C)cc(NS(C)(=O)=O)c4OC)c4ccccc34)n2)cc(C(=O)NCCOCCOCCOC)c1` [Compound I, 3-((4-((4-(3-(5-(tert-Butyl)-2-methoxy-3-(methylsulfonamido)phenyl)ureido)naphthalen-1-yl)oxy)pyrimidin-2-yl)amino)-5-ethynyl-N-(2-(2-(2-methoxyethoxy)ethoxy)ethyl)benzamide], the pIC50 [1] was < 5.52, the “% Parent Remaining” value ([2]; 0 h) was 100% and the “% Parent Remaining” value ([2]; 5 h) was 100%. The “% Parent Remaining” value ([2]; 24 h) was 100%, the “number of metabolites formed in hepatocytes” value [3] was 9 and the “products connected to metabolism at the naphthalene moiety” value [3] was “no products were noted”. The “% β-catenin induction” value (d-U937 cells; 1 μg/mL) was 21%, the “% β-catenin induction” value (d-U937 cells; 5 μg/mL) was 14% and the “% β-catenin induction” value (d-U937 cells; 10 μg/mL) was 26%. The “number of individual kinase hits, S(1)” value (non-mutant kinases; 50 nM, % Ctrl <1) was 0, the “KinomeScan Selectivity Score S(10)” value (non-mutant kinases; 50 nM, % Ctrl <10) was 0.023 and the “number of individual kinase hits, S(10)” value (non-mutant kinases; 50 nM, % Ctrl <10) was 9. The “KinomeScan Selectivity Score S(35)” value (non-mutant kinases; 50 nM, % Ctrl <35) was 0.068, the “number of individual kinase hits, S(35)” value (non-mutant kinases; 50 nM, % Ctrl <35) was 27 and the “KinomeScan Selectivity Score S(1)” value (non-mutant kinases; 500 nM, % Ctrl <1) was 0.038. The “number of individual kinase hits, S(1)” value (non-mutant kinases; 500 nM, % Ctrl <1) was 15, the “number of individual kinase hits, S(10)” value (non-mutant kinases; 500 nM, % Ctrl <10) was 51 and the “number of individual kinase hits, S(35)” value (non-mutant kinases; 500 nM, % Ctrl <35) was 78. For the same molecule, the concentration at 1 h ([4]; 1 h) was 0 ng/g, the concentration at 2 h ([4]; 2 h) was 10.4 ng/g and the concentration at 4 h ([4]; 4 h) was 420 ng/g. The concentration at 6 h ([4]; 6 h) was 3080 ng/g, the concentration at 8 h ([4]; 8 h) was 1950 ng/g and the concentration at 12 h ([4]; 12 h) was 126 ng/g. For the same molecule, the concentration at 24 h ([4]; 24 h) was 23 ng/g and the IC50 (Lck) was 7.14 nM.
